Values of other authors as cited in patent publication US20100280975A1, “SYSTEMS FOR CLINICAL TRIALS” (WisTa Laboratories Ltd., priority 2007, published 2010).

Conditions: placebo arm improved 3.2 units from baseline ADAS-cog; cited from earlier work

COCCOC(=O)C1=C(C)NC(C)=C(C(=O)OC(C)C)C1c1cccc(C#N)c1Cl (stereo not shown) [MEM-1003]
efficacy in clinical trial: failed to demonstrate efficacy
